Assay results reported in ChEMBL document CHEMBL1121775, “Synthesis and antimalarial effects of N2-aryl-N4-[(dialkylamino)alkyl]- and N4-aryl-N2-[(dialkylamino)alkyl]-2,4-quinazolinediamines” (J Med Chem, 1981).
Several values for one entry are separate records, joined by “and”; a condition that tells them apart may be missing. Equal values may be shown once.

Experiments:
Type in all cases: functional
Plasmodium berghei [1] = assay: (§1) Antimalarial effect against trophozoite-induced Plasmodium berghei in mice (Mus musculus) at 640 mg/kg subcutaneous dose
Plasmodium berghei [2] = assay: Antimalarial effect against trophozoite-induced Plasmodium berghei in mice (Mus musculus) at 80 mg/kg subcutaneous dose
Plasmodium berghei [3] = assay: Antimalarial effect against trophozoite-induced Plasmodium berghei in mice (Mus musculus) at 320 mg/kg subcutaneous dose
Plasmodium berghei [4] = assay: Antimalarial effect against trophozoite-induced Plasmodium berghei in mice (Mus musculus) at 160 mg/kg subcutaneous dose
Plasmodium berghei [5] = assay: Antimalarial effect against trophozoite-induced Plasmodium berghei in mice (Mus musculus) after 20 mg/kg subcutaneous dose
Plasmodium berghei [6] = assay: Antimalarial effect against trophozoite-induced Plasmodium berghei in mice (Mus musculus) after 40 mg/kg subcutaneous dose
Mus musculus [7] = assay: Number of mice cured at a subcutaneous dose of 320 mg/kg.
Mus musculus [8] = assay: Number of mice cured at a dose of 640 mg/kg sc; conditions: route subcutaneous
Plasmodium berghei [9] = assay: as §1; remark: listed apart in the source
Mus musculus [10] = assay: Number of mice cured at a subcutaneous dose of 160 mg/kg.
Plasmodium berghei [11] = assay: Antimalarial activity against trophozoite-induced Plasmodium berghei in mice (Mus musculus) at 160 mg/kg subcutaneous dose
Plasmodium berghei [12] = assay: Antimalarial activity against trophozoite-induced Plasmodium berghei in mice (Mus musculus)

Row | Compound | MST (Plasmodium berghei [2]) | MST (Plasmodium berghei [3]) | MST (Plasmodium berghei [4]; 160 mg/kg) | MST (Plasmodium berghei [6]) | MST (Plasmodium berghei [1]) | MST (Plasmodium berghei [4]) | MST (Plasmodium berghei [5]) | further results
1 | CCN1CCCC(Nc2nc(Nc3ccc(C(F)(F)F)cc3)c3ccccc3n2)C1 (centres undefined) | -0.1 days | 0.9 days | 0.2 days and 0.3 days | – | – | – | – | MST (Plasmodium berghei [1]; 640 mg/kg): 3.4 days and 3.1 days
2 | CCN(CC)C1CCC(Nc2nc(Nc3ccc(C(F)(F)F)cc3)c3ccccc3n2)CC1 (centres undefined) | – | – | 9.7 days and 9.5 days | 0.5 days | – | – | – | MST (Plasmodium berghei [5]; 20 mg/kg): 0.5 days and 0.3 days; MST (Plasmodium berghei [2]; 80 mg/kg): 0.7 days and 0.5 days; No. of survivals (Mus musculus [7]): 5; No. of survivals (Mus musculus [8]; 640 mg/kg): 3 and 2
3 | CCN(CC)CCNc1nc(Nc2cc(Cl)c(Cl)cc2Cl)nc2ccccc12 | – | – | – | 0.4 days | 1.2 days | 0.4 days | – | –
4 | CCN1CCCC(Nc2nc(Nc3ccc(Cl)c(Cl)c3)c3ccccc3n2)C1 (centres undefined) | 0.9 days | 2.9 days | 0.9 days and 2.2 days | – | – | – | 0.9 days | MST (Plasmodium berghei [1]; 640 mg/kg): 9.5 days and 10.6 days
5 | CCN(CC)CCCNc1nc(Nc2cc(Cl)cc(Cl)c2)c2ccccc2n1 | 1.4 days | 5 days | 3 days and 2.7 days | – | – | – | 0.2 days | No. of survivals (Mus musculus [8]): 2; MST (Plasmodium berghei [9]; 640 mg/kg): 14.5 days and 15.7 days
6 | Clc1cc(Cl)cc(Nc2nc(NCCCN3CCCCC3)nc3ccccc23)c1 | – | – | – | 0.2 days | 1.6 days | 0.2 days | – | –
7 | CCN(CC)C1CCC(Nc2nc(Nc3cc(Cl)cc(Cl)c3)c3ccccc3n2)CC1 (centres undefined) | 0.5 days | – | 0.7 days and 0.5 days | – | – | – | 0.3 days | MST (Plasmodium berghei [6]; 40 mg/kg): 0.5 days and 0.3 days; No. of survivals (Mus musculus [8]): 5; MST (Plasmodium berghei [3]; 320 mg/kg): 7.9 day and 8.1 MST
8 | CCN1CCCC(Nc2nc(Nc3cc(Cl)cc(Cl)c3)c3ccccc3n2)C1 (centres undefined) | 0.2 days | 2.4 days | 0.4 days and 0.3 days | – | – | – | 0.4 days | MST (Plasmodium berghei [1]; 640 mg/kg): 4.4 days and 6.3 days; MST (Plasmodium berghei [6]; 40 mg/kg): 0.2 days and 0.1 days
9 | CCN(CC)C1CCC(Nc2nc(Nc3ccc(Cl)c(Cl)c3)c3ccccc3n2)CC1 (centres undefined) | – | – | – | 0.5 days | – | – | 0.3 days | No. of survivals (Mus musculus [10]; 160 mg/kg): 1 and 2; MST (Plasmodium berghei [11]; 160 mg/kg): 17.2 days and 15.6 days; MST (Plasmodium berghei [2]; 80 mg/kg): 2.9 days and 3.1 days; No. of survivals (Mus musculus [7]): 3; No. of survivals (Mus musculus [8]): 5; MST (Plasmodium berghei [3]; 320 mg/kg): 14.4 days and 14.9 days
10 | CCN(CC)CCNc1nc(Nc2ccc(C(F)(F)F)cc2)c2ccccc2n1 | -0.2 days | 2.8 days | – | – | – | – | 0.2 days | MST (Plasmodium berghei [1]; 640 mg/kg): 5.3 days and 5.5 days
11 | CN(C)c1ccc(Nc2nc(NC3CCC(N(C)C)CC3)nc3ccccc23)cc1 (centres undefined) | – | – | – | -0.2 days | 1.1 days | 0.6 days | – | –
12 | CN(C)C1CCC(Nc2nc(Nc3cccc(Br)c3)c3ccccc3n2)CC1 (centres undefined) | – | – | – | -0.1 days | 0.7 days | 0.7 days | – | –
13 | CCN(CC)CCCNc1nc(Nc2ccc(Cl)c(Cl)c2)c2ccccc2n1 | 2.8 days | 8.4 days | 4.6 days and 5.2 days | – | – | – | 0 days | No. of survivals (Mus musculus [8]): 1; MST (Plasmodium berghei [9]; 640 mg/kg): 9.8 days and 10.5 days
14 | Clc1ccc(Nc2nc(NCCCN3CCCCC3)nc3ccccc23)cc1Cl | -0.4 days | 1.6 days | – | – | – | – | -0.2 days | MST (Plasmodium berghei [1]; 640 mg/kg): 3 days and 4.1 days
15 | CCN(CC)CCCC(C)Nc1nc(Nc2ccc(Cl)c(Cl)c2)c2ccccc2n1 (centres undefined) | 0.3 days | 1.3 days | – | – | – | – | 0.1 days | MST (Plasmodium berghei [1]; 640 mg/kg): 4.7 days and 5.8 days; MST (Plasmodium berghei [6]; 40 mg/kg): 0.3 days and 0.4 days
16 | CCN(CC)CCCNc1nc(Nc2ccc(C(F)(F)F)cc2)c2ccccc2n1 | 0.8 days | 9.2 days | 0.6 days and 0.3 days | – | – | – | 0 days | MST (Plasmodium berghei [1]; 640 mg/kg): 10.1 days and 7.5 days

Row | Compound | MST (Plasmodium berghei [2]) | MST (Plasmodium berghei [3]) | MST (Plasmodium berghei [4]; 160 mg/kg) | MST (Plasmodium berghei [6]) | MST (Plasmodium berghei [1]) | MST (Plasmodium berghei [4]) | MST (Plasmodium berghei [5]) | further results
17 | CCN1CCCC(Nc2nc(Nc3ccc(Cl)c(Cl)c3)nc3ccc([N+](=O)[O-])cc23)C1 (centres undefined) | – | – | – | – | – | – | – | SD90 (Plasmodium berghei [12]): 34 mg/kg/day
18 | CN1CCCC1CCNc1nc(Nc2ccc(C(F)(F)F)cc2)c2ccccc2n1 (centres undefined) | 0.5 days | – | 1.5 days and 1.7 days | 0.3 days | 7.7 days | – | 0.3 days | MST (Plasmodium berghei [3]; 320 mg/kg): 4.1 days and 4.3 days
19 | CCN(CC)CCCC(C)Nc1nc(Nc2ccc(O)c(CN(CC)CC)c2)c2ccccc2n1 (centres undefined) | 1.4 days | 7.4 days | 3.8 days and 1.6 days | – | 5.6 days | – | 0 days | MST (Plasmodium berghei [6]; 40 mg/kg): 0.6 days and 0.2 days; No. of survivals (Mus musculus [8]): 3; MST (Plasmodium berghei [9]): 3.1 days
20 | CN(C)C1CCC(Nc2nc(Nc3cc(Cl)cc(Cl)c3)c3ccccc3n2)CC1 (centres undefined) | 1.2 days | – | – | 0 days | – | 2.6 days | -0.2 days | No. of survivals (Mus musculus [8]): 5
21 | Clc1cc(Cl)cc(Nc2nc(NCCCN3CCCC3)nc3ccccc23)c1 | – | – | – | 0.4 days | 1.2 days | 0.8 days | – | –
22 | CCN(CC)C1CCC(Nc2nc(Nc3cccc(Br)c3)c3ccccc3n2)CC1 (centres undefined) | – | – | 10.3 days and 10.1 days | – | – | – | – | MST (Plasmodium berghei [5]; 20 mg/kg): 0.3 days and 0.5 days; MST (Plasmodium berghei [6]; 40 mg/kg): 0.3 days and 0.5 days; MST (Plasmodium berghei [2]; 80 mg/kg): 2.5 days and 2.7 days; No. of survivals (Mus musculus [8]; 640 mg/kg): 3 and 2; MST (Plasmodium berghei [3]; 320 mg/kg): 12.9 days and 12.7 days
23 | CCN(CC)CCCC(C)Nc1nc(Nc2cc(Cl)cc(Cl)c2)c2ccccc2n1 (centres undefined) | -0.1 days | 3.1 days | 1.1 days and 1.2 days | – | – | – | 0.1 days | MST (Plasmodium berghei [1]; 640 mg/kg): 4.9 days and 4.4 days
24 | CCN(CC)CCCC(C)Nc1nc(Nc2ccc(C(F)(F)F)cc2)c2ccccc2n1 (centres undefined) | – | – | – | -0.6 days | 1.6 days | 0 days | – | –
25 | CCN1CCCC(Nc2nc(Nc3ccc(Cl)c(Cl)c3)nc3c(Cl)cc(Cl)cc23)C1 (centres undefined) | – | – | – | 0.3 days | – | 0.5 days | 0.3 days | –
26 | CCN(CC)C1CCC(Nc2nc(Nc3ccc(SC)cc3)c3ccccc3n2)CC1 (centres undefined) | – | 11.7 days | – | 0.7 days | – | 5.7 days | – | MST (Plasmodium berghei [5]; 20 mg/kg): 0.5 days and 0.7 days; MST (Plasmodium berghei [2]; 80 mg/kg): 1.1 days and 1.3 days
27 | OC1CCCN(CCCNc2nc(Nc3cccc4nsnc34)nc3ccccc23)C1 (centres undefined) | – | – | – | 0 days | 0 days | 0 days | – | –
28 | CN(C)C1CCC(Nc2nc(Nc3ccc(C(F)(F)F)cc3)c3ccccc3n2)CC1 (centres undefined) | – | – | – | 1.1 days | 0.7 days | 0.7 days | – | –
29 | CCN1CCC(CNc2nc(Nc3ccc(Cl)c(Cl)c3)c3ccccc3n2)CC1 | – | – | – | 2.1 days | – | – | – | MST (Plasmodium berghei [5]; 20 mg/kg): 0.5 days and 0.7 days; No. of survivals (Mus musculus [10]): 1; MST (Plasmodium berghei [11]): 6.94 days; MST (Plasmodium berghei [2]; 80 mg/kg): 6.7 days and 6.9 days; No. of survivals (Mus musculus [7]): 5; No. of survivals (Mus musculus [8]): 5
30 | CCN1CCC(CNc2nc(Nc3cc(Cl)cc(Cl)c3)c3ccccc3n2)CC1 | – | – | 5.7 days and 5.9 days | 0.5 days | – | – | – | MST (Plasmodium berghei [5]; 20 mg/kg): 0.5 days and 0.3 days; MST (Plasmodium berghei [2]; 80 mg/kg): 2.5 days and 2.7 days; No. of survivals (Mus musculus [7]; 320 mg/kg): 3 and 2; No. of survivals (Mus musculus [8]; 640 mg/kg): 3 and 2
31 | CCN(CC)CCCC(C)Nc1nc(Nc2cc(OC)c(OC)c(OC)c2)c2ccccc2n1 (centres undefined) | -0.3 days | 0.5 days | 0.3 days and 0.6 days | – | – | – | 0.3 days | MST (Plasmodium berghei [1]; 640 mg/kg): 3.5 days and 5 days
32 | FC(F)(F)c1ccc(Nc2nc(NCCCN3CCCCC3)nc3ccccc23)cc1 | – | – | – | -0.2 days | 2.4 days | -0.2 days | – | –
